# Source: ChEMBL document CHEMBL4028815, “Novel phosphonate analogs of sulforaphane: Synthesis, in vitro and in vivo anticancer activity” (Eur J Med Chem, 2017)
# Active and inactive are the calls of the source. The rule behind the calls is not given here.
# Assays:
# [1] = tested on: 4T1; assay: Anti-tumor activity against mouse 4T1 cells implanted in BALB/c mdb mouse assessed as tumor growth inhibition at 25 umol/kg, ip administered 3 times weekly measured on day 29 post cell innoculum relative to control; conditions: 4T1, ip, 696 h, read-out: TGI
# [2] = tested on: LoVo; assay: Potency index, ratio of benzyl isothiocyanate IC50 to compound IC50 for human LoVo cells; assay type: functional
# [3] = tested on: LoVo; assay: Cytotoxicity against human LoVo cells after 72 hrs by sulforhodamine B assay; assay type: functional, cell-based
# [4] = Potency index, ratio of benzyl isothiocyanate IC50 to compound IC50 for human LoVo/DX cell; assay type: functional
# [5] = tested on: LoVo; assay: Potency index, ratio of sulforaphane IC50 to compound IC50 for human LoVo cells; assay type: functional
# [6] = Potency index, ratio of sulforaphane IC50 to compound IC50 for human LoVo/DX cell; assay type: functional
# [7] = Cytotoxicity against human LoVo/DX cells after 72 hrs by sulforhodamine B assay; assay type: functional, cell-based
# [8] = tested on: Mus musculus; assay: Toxicity in BALB/c mdb mouse implanted with mouse 4T1 cells assessed as WBC level at 450 umol/kg, ip administered five times weekly measured at 29 day post cell innoculum (reference value: 212.3 +/- 82.8 10^3/uL); assay type: organism-based; conditions: in vivo, 696 h
# [9] = tested on: 4T1; assay: Anti-tumor activity against mouse 4T1 cells implanted in BALB/c mdb mouse assessed as lung metastasis at 450 umol/kg, ip administered five times weekly measured at 29 days post cell innoculum (reference value: 56 +/- 25); assay type: functional
# [10] = tested on: LoVo/DX; assay: Induction of apoptosis in human LoVo/DX cells assessed as loss of mitochondrial membrane potential at 15 uM after 24 hrs by JC-1 staining based flow cytometric method relative to control; assay type: functional
# [11] = tested on: Mus musculus; assay: Toxicity in BALB/c mdb mouse implanted with mouse 4T1 cells assessed as hematocrit at 450 umol/kg, ip administered five times weekly measured at 29 day post cell innoculum (reference value: 39.9 +/- 3.7 %); assay type: organism-based; conditions: in vivo, 696 h
# [12] = tested on: LoVo; assay: Induction of apoptosis in human LoVo cells assessed as increase in early apoptotic cells at 15 uM after 24 hrs by APC-Annexin-V/propidium iodide staining based flow cytometric method relative to control; assay type: functional
# [13] = tested on: LoVo; assay: Induction of apoptosis in human LoVo cells assessed as loss of mitochondrial membrane potential at 15 uM after 24 hrs by JC-1 staining based flow cytometric method relative to control; assay type: functional
# [14] = tested on: Mus musculus; assay: Toxicity in BALB/c mdb mouse implanted with mouse 4T1 cells assessed as spleen weight at 450 umol/kg, ip administered five times weekly measured at 29 day post cell innoculum (reference value: 0.603 +/- 0.133 g); assay type: organism-based; conditions: in vivo, 696 h
# [15] = tested on: LoVo; assay: Induction of apoptosis in human LoVo cells assessed as necrotic cells at 15 uM after 24 hrs by APC-Annexin-V/propidium iodide staining based flow cytometric method (reference value: 10%); assay type: functional
# [16] = tested on: LoVo; assay: Induction of apoptosis in human LoVo cells assessed as increase in caspase3/7 activity at >15 uM using Ac-DEVD-ACC as substrate pretreated for 24 hrs followed by substrate addition measured for 2 hrs by fluorescence assay; assay type: functional, cell-based
# [17] = tested on: LoVo; assay: Induction of apoptosis in human LoVo cells assessed as late apoptotic cells at 15 uM after 24 hrs by APC-Annexin-V/propidium iodide staining based flow cytometric method relative to control; assay type: functional
# [18] = tested on: Mus musculus; assay: Toxicity in BALB/c mdb mouse implanted with mouse 4T1 cells assessed as serum urea level at 450 umol/kg, ip administered five times weekly measured at 29 day post cell innoculum (reference value: 3.8 +/- […]); assay type: organism-based; conditions: in vivo, 696 h
# [19] = Induction of apoptosis in human LoVo/DX cells assessed as increase in caspase3/7 activity at 15 uM using Ac-DEVD-ACC as substrate pretreated for 24 hrs followed by substrate addition measured for 2 hrs by fluorescence assay relative to control; assay type: functional
# [20] = Resistance index, ratio of IC50 for human HL60/MX2 cells to IC50 for human HL60 cells; assay type: functional
# [21] = tested on: Mus musculus; assay: Toxicity in BALB/c mdb mouse implanted with mouse 4T1 cells assessed as body weight loss at 450 umol/kg, ip administered five times weekly measured on day 11; assay type: organism-based; conditions: in vivo
# [22] = tested on: BALB/3T3; assay: Cytotoxicity against mouse BALB/3T3 cells after 72 hrs by sulforhodamine B assay; assay type: cell-based; conditions: BALB/3T3, 72 h
# [23] = tested on: MES-SA/Dx5; assay: Cytotoxicity against human MESSA/DX5 cells after 72 hrs by sulforhodamine B assay; assay type: functional, cell-based; conditions: MES-SA/Dx5, 72 h
# [24] = tested on: Mus musculus; assay: Toxicity in BALB/c mdb mouse implanted with mouse 4T1 cells assessed as serum PLT level at 450 umol/kg, ip administered five times weekly measured at 29 day post cell innoculum (reference value: 972 +/- 157 10^3/uL); assay type: organism-based; conditions: in vivo, 696 h
# [25] = tested on: Mus musculus; assay: Toxicity in BALB/c mdb mouse implanted with mouse 4T1 cells assessed as serum creatinine level at 450 umol/kg, ip administered five times weekly measured at 29 day post cell innoculum (reference value: 9.3 +/- 1.2 umol/L); assay type: organism-based; conditions: in vivo, 696 h
# [26] = tested on: LoVo; assay: Induction of apoptosis in human LoVo cells assessed as increase in caspase3/7 activity at 15 uM using Ac-DEVD-ACC as substrate pretreated for 24 hrs followed by substrate addition measured for 2 hrs by fluorescence assay relative to control; assay type: functional
# [27] = tested on: Mus musculus; assay: Toxicity in BALB/c mdb mouse implanted with mouse 4T1 cells assessed as RBC level at 450 umol/kg, ip administered five times weekly measured at 29 day post cell innoculum (reference value: 8.6 +/- 0.9 10^6/uL); assay type: organism-based; conditions: in vivo, 696 h
# [28] = tested on: Mus musculus; assay: Toxicity in BALB/c mdb mouse implanted with mouse 4T1 cells assessed as serum AST level at 450 umol/kg, ip administered five times weekly measured at 29 day post cell innoculum (reference value: 136 +/- 10.3 U/L); assay type: organism-based; conditions: in vivo, 696 h
# [29] = tested on: MES-SA; assay: Cytotoxicity against human MESSA cells after 72 hrs by sulforhodamine B assay; assay type: functional, cell-based
# [30] = tested on: Mus musculus; assay: Toxicity in BALB/c mdb mouse implanted with mouse 4T1 cells assessed as body weight loss at 450 umol/kg, ip administered five times weekly measured 3 times weekly during compound dosing; assay type: organism-based; conditions: in vivo
# [31] = tested on: HL-60; assay: Cytotoxicity against human HL60 cells after 72 hrs by sulforhodamine B assay; assay type: functional, cell-based; conditions: HL-60, 72 h
# [32] = tested on: LoVo/DX; assay: Cell cycle arrest in human LoVo/DX cells at 15 uM after 24 hrs by propidium iodide staining based flow cytometric method; assay type: functional
# [33] = tested on: Mus musculus; assay: Toxicity in BALB/c mdb mouse implanted with mouse 4T1 cells assessed as serum ALT level at 450 umol/kg, ip administered five times weekly measured at 29 day post cell innoculum (reference value: 23.8 +/- 2.2 U/L); assay type: organism-based; conditions: in vivo, 696 h
# [34] = tested on: LoVo; assay: Cell cycle arrest in human LoVo cells at 15 uM after 24 hrs by propidium iodide staining based flow cytometric method; assay type: functional
# [35] = tested on: LoVo/DX; assay: Induction of apoptosis in human LoVo/DX cells assessed as increase in caspase3/7 activity at >15 uM using Ac-DEVD-ACC as substrate pretreated for 24 hrs followed by substrate addition measured for 2 hrs by fluorescence assay; assay type: functional, cell-based
# [36] = tested on: 4T1; assay: Anti-tumor activity against mouse 4T1 cells implanted in BALB/c mdb mouse assessed as tumor growth inhibition at 450 umol/kg, ip administered five times weekly measured on day 29 post cell innoculum relative to control; assay type: functional; conditions: 4T1, ip, 696 h, read-out: TGI
# [37] = tested on: Mus musculus; assay: Toxicity in BALB/c mdb mouse implanted with mouse 4T1 cells assessed as body weight loss at 450 umol/kg, ip administered five times weekly starting from day 15 post cell innoculum; assay type: organism-based; conditions: in vivo
# [38] = tested on: 4T1; assay: Cytotoxicity against mouse 4T1 cells after 72 hrs by sulforhodamine B assay; assay type: functional, cell-based; conditions: 4T1, 72 h
# [39] = tested on: A549; assay: Cytotoxicity against human A549 cells after 72 hrs by sulforhodamine B assay; assay type: functional, cell-based; conditions: A549, 72 h
# [40] = tested on: LoVo/DX; assay: Induction of apoptosis in human LoVo/DX cells assessed as late apoptotic cells at 15 uM after 24 hrs by APC-Annexin-V/propidium iodide staining based flow cytometric method relative to control; assay type: functional
# [41] = tested on: HL60/MX2; assay: Cytotoxicity against human HL60/MX2 cells after 72 hrs by sulforhodamine B assay; assay type: functional, cell-based; conditions: HL60/MX2, 72 h
# [42] = tested on: Mus musculus; assay: Hepatotoxicity in BALB/c mdb mouse implanted with mouse 4T1 cells assessed as liver weight at 450 umol/kg, ip administered five times weekly measured at 29 day post cell innoculum (reference value: 1.2 +/- 0.13 g); assay type: toxicity, organism-based; conditions: in vivo, 696 h
# [43] = tested on: LoVo; assay: Cytotoxicity against human LoVo cells assessed as cell death at >15 uM after 24 hrs; assay type: cell-based
# [44] = Cytotoxicity against human LoVo/DX cells assessed as cell death at >15 uM after 24 hrs; assay type: cell-based
# [45] = tested on: Mus musculus; assay: Toxicity in BALB/c mdb mouse implanted with mouse 4T1 cells assessed as lung weight at 450 umol/kg, ip administered five times weekly measured at 29 day post cell innoculum (reference value: 0.2 +/- 0.018 g); assay type: organism-based; conditions: in vivo, 696 h
# [46] = tested on: Mus musculus; assay: Toxicity in BALB/c mdb mouse implanted with mouse 4T1 cells assessed as hemoglobin level at 450 umol/kg, ip administered five times weekly measured at 29 day post cell innoculum (reference value: 15.1 +/- 1.5 g/dl); assay type: organism-based; conditions: in vivo, 696 h
# [47] = tested on: Mus musculus; assay: Nephrotoxicity in BALB/c mdb mouse implanted with mouse 4T1 cells assessed as kidney weight at 450 umol/kg, ip administered five times weekly measured at 29 day post cell innoculum (reference value: 0.136 +/- 0.006 g); assay type: toxicity, organism-based; conditions: in vivo, 696 h
compound,measurement,setting,value
O=P1(N(CCCl)CCCl)NCCCO1 (stereo unspecified) [CYCLOPHOSPHAMIDE ANHYDROUS],inhibition in vivo at 25 µmol/kg,[1],33.3%
CC(C)COP(=O)(CCN=C=S)OCC(C)C,Ratio IC50,[2],5
same,IC50,[3],1.9 µM
same,Ratio IC50,[4],5
same,Ratio IC50,[5],10
same,Ratio IC50,[6],10
same,IC50,[7],2.6 µM
CCOP(=O)(CCCCCCN=C=S)OCC,Activity,[8],201.2 ×10³ /uL
same,Activity,[9],62
same,Ratio IC50,[2],5
same,Activity,[10],Active
same,Activity,[11],47.7%
same,Activity,[12],inactive
same,Activity,[13],Active
same,Activity,[14],0.493 g
same,Activity,[15],Active
same,Activity,[16],inactive
same,Activity,[17],inactive
same,Activity,[18],4.6 mmol/L
same,fold change (FC),[19],3
same,Ratio IC50,[20],7.8
same,Activity,[21],> 5%
same,IC50,[3],2.1 µM
same,IC50,[22],17.5 µM
same,IC50,[23],9.9 µM
same,Activity,[24],751 ×10³ /uL
same,Activity,[25],9.3 µmol/L
same,fold change (FC),[26],3
same,Ratio IC50,[5],10
same,Activity,[27],10.1 ×10⁶ /uL
same,Activity,[28],142.5 U/L
same,IC50,[29],10.4 µM
same,Activity,[30],<= 10%
same,IC50,[31],0.5 µM
same,Activity,[32],Active
same,Activity,[33],28.2 U/L
same,Activity,[34],Active
same,Activity,[35],inactive
same,inhibition in vivo at 450 µmol/kg,[36],7.1%
same,Activity,[37],Non-Toxic
same,IC50,[7],3.9 µM
same,IC50,[38],3.1 µM
same,IC50,[39],11.7 µM
same,Activity,[40],inactive
same,IC50,[41],4 µM
same,Activity,[42],1.24 g
same,Activity,[43],Toxic
same,Activity,[44],Toxic
same,Activity,[45],0.219 g
same,Activity,[46],17.3 g/dL
same,Activity,[47],0.14 g
